Test results reported in patent US20260191817A1, “FIBROBLAST MODULATORS IN STROMA-RICH TUMORS” (UNIVERSITEIT GENT, priority 2022, published 2026).

Experiments:
[1] = system: HCA2 hTERT dermal fibroblasts; assay: AFM spheroid stiffness, HCA2 hTERT dermal fibroblasts; format: cell-based; conditions: HCA2 hTERT normal dermal fibroblasts; 1 μM, 48 h
Procedure: Selectivity for CAFs with respect to normal fibroblasts and other cell types was assessed by performing an identical experiment with normal fibroblasts and other cell types, where compounds were considered selective for CAFs if they only modulate CAF stiffness.
U-shaped, 384-well ULA plates (cat. no. MS-9384UZ, S-bio) were seeded with a suspension of cell-specific culture media with cells. Cells were allowed to form spheroids for an appropriate time under treatment conditions before use in experiments. Cell culture dishes (cat. no. 734-2814, VWR) were filled with collagen gel and placed at 37° C. for an appropriate time to allow solidification. For each condition, spheroids were pooled in one cell culture dish. The medium was removed (stored at 37° C.) to promote attachment of the bottom of each spheroid to the collagen gel. The cell culture dishes were incubated at 37° C. After the incubation period, the stored medium was carefully (prevent detachment of spheroids) added to the dishes.
Mechanical measurements were performed using an atomic force microscope. To indent the spheroids an in-house made colloidal probe was used. Force curves were collected using an appropriate setpoint and probe speed (depending on the stiffness of the spheroids). On each spheroid multiple force curves were collected. Collected curves were then processed using the JPK DP software. Young's modulus was extracted from the force curves. All experiments were performed in biological triplicate.
To generate 3D cultures mimicking the complexity and pathophysiology of in vivo tumors, spheroids were used (cfr. point 4). Spheroids are considered to better simulate cellular heterogeneity, nutrient and oxygen gradients, cell-cell interactions, cell-matrix interactions, gene expression profiles, stromal interactions, therapeutic responses, multicellular resistance, drug penetration and anti-apoptotic signaling.

[2] = 4T1-based intraductal model: tolerability; format: in vivo; conditions: oral in Medigel, 100 mg/kg three times per day; weekly evaluation across 6 w study period
Procedure: Compounds were dissolved in DMSO. The compound solution was subsequently aspired using a 1 mL syringe and an 18 G (pink) needle, including additional air to help eject all the solution and avoid retention of compound in the dead volume. The solution was injected into a Medigel in five parts at five different sites and a volume of gel was aspired and reinjected into the cup at the last site to rinse the dead volume of the syringe. The medication was shaken vigorously afterwards and visually examined for even dispersion of compound. Mice received freshly prepared cups with medication every 48 h and gels were placed in gel cup holders to avoid contact with bedding material and absorbent shavings in the mouse cage. The amount of Medigel given to the mice was weekly determined and depended on the mean mouse body weight and consumption. The dosing level was kept constant at 100 mg/kg three times per day.
Body weight and body temperature were measured every day during the first week p.i., and once a week during the following 5 weeks (i.e. up to 6 w p.i.) using a digital weighing scale and a rectal temperature probe, respectively. As a measurement of primary tumor growth, primary tumor volumes were weekly monitored using a digital caliper and 4T1-luc-derived bioluminescence in primary tumors was monitored at 1, 3 and 6 w p.i. using the IVIS lumina III system (PerkinElmer, Zaventem, Belgium). To perform in vivo imaging, mice were injected with 200 μl D-luciferin suspended in PBS (2 mg/100 μl; Gold Biotechnology, St. Louis, MO) and images were acquired 10 min later under inhalation anesthesia. To perform ex vivo imaging, mice were sedated with a mixture of 100 mg/kg ketamine (Ketamidor, Ecuphar nv/sa, Oostkamp, Belgium) and 10 mg/kg xylazine (Xylazini Hydrochloridum, Val d'HonyVerdifarm, Beringen, Belgium) and subsequently sacrificed through cervical dislocation. Images of bioluminescent signals in isolated primary tumors, spleens and metastases-bearing organs (including axillary lymph nodes, lungs and liver) were quickly acquired using the IVIS system. Primary tumors and spleens were also weighed using a digital weighing scale. Analysis of the in vivo and ex vivo bioluminescent signals was performed using the living image software 4.7.2.

COc1cc(C(=O)/C=C/c2ccc(F)cc2)cc(OC)c1OC [Compound A1, 3-(4-Fluorophenyl)-1-(3,4,5-trimethoxyphenyl)prop2-en-1-one]
spheroid stiffness [1]: no effect | Body temperature [2]: no significant variation | Body weight [2]: no significant variation

COc1cc2oc(-c3ccc(F)cc3)cc(=O)c2c(OC)c1OC [Compound B1, 2-(4-Fluorophenyl)-5,6,7-trimethoxy-4H-chromen-4-one]
spheroid stiffness [1]: no effect | Body temperature [2]: no significant variation | Body weight [2]: no significant variation
